Measured values from US20180353445A1, “METHODS AND COMPOSITIONS RELATING TO PROTEASOME INHIBITOR RESISTANCE” (Whitehead Institute for Biomedical Research, priority 2017, published 2018).
“Also recorded” adds a separate entry of the source.

Columns and labels:
cancer cells = experiment: Cell viability, elesclomol and elesclomol analogs (cell titer-glo); assay type: cell-based; conditions: substitution of oxygen for sulfur group(s)
Description: In addition to the intrinsic sensitivity of certain cancer cells to elesclomol, as our drug screen indicated, the sensitivity of cancer cells to elesclomol can be further enhanced by forcing them into a Hi-OXPHOS state.
We examined several elesclomol analogs (FIG. 57B) to determine the structural features that are important for mediating its cytotoxicity. […] Substitution of oxygen for even one of the sulfur groups (compound-5) reduced the activity of elesclomol by 300 fold. The loss of activity was even more pronounced (>>300 fold) when both sulfurs were substituted (compound-6) (FIGS. 51C-51D, FIG. 57C). Various other modifications to the elesclomol scaffold were tolerated, as long as the core sulfur geometry remained intact.
(§1) Cell viability—where indicated relative cell number following different drug treatment was conducted by plating cells at 1000 cells/well in 384 well plates. Indicated concentrations of compounds were added 24 hour after plating at least in triplicate for each condition. Viability was measured 72 hours after drug addition using cell titer-glo (Promega) according to manufactures protocol. […]

[1] = system: IMR32 (reduced PSMD5) and Kelly neuroblastoma cells; experiment: Viability of IMR32 versus Kelly neuroblastoma cells (CellTiter-Glo); assay type: cell-based, human; conditions: other experiments, e.g., 0.1 uM
T47D cells [2] = experiment: The glucose/galactose drug screen; assay type: cell-based, human; conditions: for relative viability change of cells grown in glucose versus galactose: 10 mM Glucose or Galactose, Selleck anti cancer and natural product libraries
Experimental: We conducted a second set of drug screens to identify unique sensitivities conferred by the Hi-OXPHOS state using parental T47D breast cancer cells (without 19S subunit suppression). For this screen, we used the NPC and CDL libraries as they contained the greatest number of hits in the Lo19S screen. We tested over 800 compounds at multiple concentrations and measured their effects on relative cell growth/viability when cells were grown under aerobic glycolysis conditions (glucose-supplemented medium) or forced mitochondrial respiration conditions (galactose-supplemented medium).
The glucose/galactose drug screen—T47D cells growing in regular media were collected counted and after centrifugation cells were re-suspended in RPM1 media without glucose containing 10% dialyzed serum with the addition of either 10 mM glucose or 10 mM galactose, Cells were then plated at 1000 cells/well in 384-well opaque, white assay plates (Coming, N.Y.), 50 uL per well, and incubated overnight at 37°C./5% CO2. Application of the drug libraries and cell viability was executed as described above for the Lo19S drug screen.

[3] = system: T47D cells with doxycycline inducible PSMD2 KD (Lo19S) versus control cells; experiment: Lo19S T47D drug screen (PSMD2 KD versus control cells, CellTiter-Glo); assay type: cell-based, human; conditions: T47D, Lo19S state by dox-inducible PSMD2 shRNA; compound library screen; 72 h; CellTiter-Glo
Experimental: The effect of each drug on viability of cells was calculated by averaging the duplicate experiments. The data is plotted in FIG. 16 as the log2 of the ratio of viability of PSMD2 KD versus control cells (log2 (shPSMD2/Control)). […] The Selleck natural product library (NPC) comprising 502 compounds in 5 doses and the. NIH bioactive compound library that includes 731 compounds in 4 doses were also screened using the same system.
A deeper understanding of the proteasome inhibitor resistant state could yield insights into the molecular mechanisms activated by cells to cope with proteotoxic stress and elucidate new therapeutic strategies for cancer. With these goals in mind, we screened mechanistically diverse small molecule libraries to identify compound sensitivities altered by the Lo19S and Hi-OXPHOS states. An initial screen was conducted in the isogenic T47D model with transient induction of the Lo19S state as described above, We evaluated >4300 mechanistically well-defined compounds within 4 libraries. The compounds included approved cancer drugs (Selleck anti-cancer library: CDL), common natural products (Natural product library: NPC) and an ^-NIH bioactives library (NIH). Each of these compounds was tested at ≥4 concentrations. (Table S5, data not shown), An additional 2866 compounds from the Boston University's Chemical Methodology and Library Development (CMLD-BU) small molecule collection was screened at a single dose (BULL, see Table S5).
Generation of the Lo19S T47D cell line—For the generation of the T47D Tet-inducible PSMD2 knockdown cell line—the TRIPZ vector with an inducible shRNA targeting PSMD2 was purchased from Dharmacon (clone V3THS_403760). It was introduced to the T47D cells according to manufactures protocol and cells were selected with puromycin […] for one week. The cells were exposed to doxycycline for 24 hours and cells were FACS sorted for the top 10% of most RFP expressing cells (highest expression of shRNA). The cells were further cultured in the absence of doxycycline and PSMD2 knockdown was induced as specified in the text.
After 48 hours the cells were collected counted and plated (in the absence of dox) at 1000 cells/well in 384-well opaque, white assay plates (Coming, NY), 50 uL per well, and incubated overnight at 37° C./5% CO2. Compound stocks from the Cancer drug library containing 349 bioactive compounds that were arrayed in dose 10 nM, 100 nM, 1 uM, 10 uM (Selleck anti-cancer compound library L3000), the natural products library containing 502 compounds that were utilized in 5 doses (dilution of 1:1000 of 2ug/ml, 0.2 ug/ml, 0.002/ug/ml, 0.0002 ug/ml), the NIH bioactive library including 731 drugs in dose of 10 nM, 100 nM, 1 uM, 10 uM and the Boston University's CMLD (Chemical Methodology and Library Development) compound deck containing 2866 compounds in one dose (10 uM), including novel chemotypes that uniquely probe three-dimensional space by employing stereochemical and positional variation within the molecular framework as diversity elements in library design. 50 nl of compounds were pin-transferred (V&P Scientific, CA, pin tool mounted onto Tecan Freedom Evo 150 MCA96 head, Tecan, Calif.) into duplicate assay plates and incubated for 72 h. The DMSO content was 0.1% within each well, Per plate, there are 32 wells of DMSO vehicle control and 32 wells of positive control compounds. After three days of incubation, 10 uL of CellTiter-Glo (Promega, Wis.) was added to each well, incubated for 10 minutes and the luminescence output was read on the M1000 Infinite Pro plate reader (Tecan, Calif.).

T47D cells [4] = experiment: Drug library screen (Selleck anti-cancer, NPC, NIH bioactive), PSMD2 KD vs control T47D cells; assay type: cell-based, human
Experimental: Schematic representation of the drug screen setup. (FIG. 37A) 147D cells harboring a doxycycline-inducible PSMD2 shRNA were grown in the presence or absence of doxycycline for 48 hr. Cells were then collected, washed, and plated in the absence of doxycycline for 24 hr prior to exposure different compounds. Relative cell numbers were measured 3 days later.
The relative viability of the Lo19S versus control cells was calculated for replica experiments and the log2 of the ratio is plotted. […] The relative viability of the respiring cells (Hi-OXPHOS) (gal) versus the control cells (glu) was calculated for replica experiments and the log2 of the ratio is plotted.
After 48 hours the cells were collected, counted, and plated at 1000 cells/well in 384 well plates in duplicates for each cell line. Compounds from the Selleck Chemicals anti-cancer compound library (349 drugs in 4 concentrations; […]) were pinned the next day and viability was measured after 72 hours by the reduction of Resazurin (Ex=530 run, Em=590nin). (See FIG. 37A for schematic of screen.)

[5] = system: IMR32 (reduced PSMD5) and Kelly neuroblastoma cells; experiment: Viability of IMR32 versus Kelly neuroblastoma cells (CellTiter-Glo); assay type: cell-based, human; conditions: 72 hours after addition; CellTiter-Glo
Experimental: To determine whether these compounds also differentially affect cells with reduced expression of PSDMS, IMR32 and Kelly cells were each cultured in the presence of ABT-263, disulfiram, or elesclomol across a range of concentrations. Cell viability was measured by CellTiter-Glo® Luminescent Cell Viability Assay 72 hours after addition of the compound to cells. The fold viability relative to culture in the absence of the compound was determined for each cell line. […] In the experiment shown in FIG. 24, the lowest lower concentration of ABT-263 and disulfiram tested was 1 uM.
ABT-263 targets several members of the BCL2 family, including BCL2 and BCL-XL.

MCF7 and HEK293 cells = experiment: Cell viability with glucose or galactose as the carbon source; assay type: cell-based, human; conditions: 10 mM glucose or 10 mM galactose
Experimental: Cells were treated with increasing concentrations of elesclomol in the presence of either Glucose or Galactose as the carbon source (FIG. 40A). The presence of Galactose will induce a mitochondrial dependent metabolism (FIGS. 40B-40C, Gohil et al., Nature Biotechnology 28, 249-255 (2010)).
The sensitivity of cells to different chemical isoforms of elesclomol was also assessed. […] Removing even one substantially impairs the ability of the molecule to induce toxicity (FIG. 41B).
Cell culture methods—147D, Lo19S T47D, K562 and 293T-HS cells were cultured in RPMI-1640 medium supplemented with 10% fetal bovine serum; HEK293, HEK293T and MCF-7 cells were cultured in Dulbecco's modified Eagle's medium supplemented with 10% fetal bovine serum. For the glucose, galactose experiments media lacking glucose was supplemented with dialyzed serum and either 10 mM Glucose or 10 mM galactose.
as §1

Compound	reduction of activity relative to elesclomol (cancer cells)	toxicity at lower concentrations than 1 uM [1]	relative viability change of cells grown in glucose versus galactose (T47D cells [2])	number of concentrations at which respiring cells were preferentially targeted (T47D cells [2]; galactose versus glucose)	viability of PSMD2 KD versus control cells (log2 (shPSMD2/Control)) [3]	sensitivity of proteasome inhibitor resistant cancer cells vs sensitive counterpart cells (T47D cells [4])	growth inhibition of T47D cells with reduced level of PSMD2 vs control T47D cells (T47D cells [4]; Selleck anti-cancer compound library screen)	sensitivity of IMR32 cells relative to Kelly cells (fold viability) [5]	sensitivity of cells in galactose (mitochondrial metabolism, Hi-OXPHOS) versus glucose (glycolytic) (MCF7 and HEK293 cells)
CN(NC(=O)CC(=O)NN(C)C(=S)c1ccccc1)C(=O)c1ccccc1 [compound-5]	300 fold	–	–	–	–	–	–	–	–
CCN(CC)C(=S)SSC(=S)N(CC)CC [disulfiram, tetraethylthiuram disulfide]	–	a similar level of toxicity was observed	cells that respire are predominantly sensitive; also recorded: preferentially targeted respiring cells; also recorded: more potent in cells in the Hi-OXPHOS state	4 concentrations	selectively reduce the viability of PSMD2 KD cells versus control cells; also recorded: selectively sensitized cells; also recorded: highly effective in slowing the growth of cells in the Lo19S state	highly sensitive	selectively inhibit growth	dramatically more sensitive	–
antimycin A	–	–	increased sensitivity	–	–	–	–	–	This phenomenon is observed
